pIC50: −log10 of the molar value.
Legend:
[1] = test system: PAF-induced hypotension; test: PAF-induced hypotension (Test D); assay type: in vivo, Wistar rats
Protocol: Male Wistar rats, weighing approximately 300 gm, are anesthetized and their carotid arteries cannulated to enable their diastolic and systolic arterial blood pressure measurements to be recorded. PAF is then administered intravenously at either 100 or 500 ng/kg, and the blood pressure drop (within 10 sec.) and recovery time required to reach the pre-injection blood pressure level are measured.

[2] = test system: PAF-mediated broncho-constriction (PAF-induced Pulmonary Inflation Pressure increase); test: PAF-induced Pulmonary Inflation Pressure (PIP) Increase test (Test B); assay type: in vivo, guinea pigs; settings: Cavia porcellus, PAF 100 ng/kg i.v., maximal PIP
Protocol: Male guinea pigs, weighing between 300 and 400 gm, are anesthetized, after which time trachea tube, carotid and jugular catheters are inserted. The test animal is then force ventilated employing a small animal Harvard respirator and the resistance to lung inflation (PIP) is measured utilizing a pressure transducer and recorder. The test compound is administered orally at 30 minutes prior to, intravenously (jugular) at 5 minutes prior to, or intraarterially at 1 to 5 minutes prior to the introduction of PAF. The PAF (C18 -Sandoz, Hanover) is dissolved in Tris-Tyrode's bovine serum albumin buffer and administered intravenously (jugular) at 100 ng/kg. Any blood pressure measurements taken are recorded from a transducer attached to the carotid catheter.

[3] = test system: PAF-mediated extravasation; test: PAF-induced Extravasation test (Test C), hemoconcentration; assay type: in vivo, guinea pigs; settings: Cavia porcellus, PAF 100 ng/kg i.v., hematocrit increase
[4] = target: T1, Human Platelet PAF Receptor (Homo sapiens, UniProt P25105); test: Human Platelet PAF Receptor Assay test (Test A): inhibition of specific binding of [3H]-PAF to platelets; settings: inhibition of [3H]-PAF specific binding
T1 construct: endogenous in cells; host or cells: washed intact platelets from blood of healthy human donors
Protocol: Human blood is obtained by venipuncture of healthy, human donors into an anti-coagulant mixture containing 3.15% of trisodium citrate and 20 μg/ml of Prostaglandin I2 (PGI2) in a ratio of blood to anti-coagulant of 9:1. Platelet rich plasma (PRP) is prepared by centrifugation (250×g) of the blood for 20 minutes at room temperature. The PRP is then centrifuged […] for 10 minutes at room temperature and the platelet pellet is washed two times with Tris-Tyrode's (TT) solution having a pH of 7.4 and containing 0.25% bovine serum albumin (BSA), and to which has been added PGI2 at a final concentration of […]. The platelets are resuspended at […] in TT/BSA containing 1.4 mM CaCl2.2H2 O and 0.7 mM MgCl2.6H2 O. All of the tests are conducted in duplicate and each of the test compounds is evaluated at concentrations of 100, 500, 1 and 0.1 μM. For each determination, the following solutions are mixed:
500 μl of the above-described platelets;
10 μl of [^3 H]-PAF (40,000 counts per minute (cpm) to a final concentration of […]); and either
10 μl of the test compound at 50× the desired final concentration,
10 μl of vehicle (total bound), or
10 μl of 1.85×10^-5 M cold PAF (non-specifically bound).
Each mixture is allowed to incubate at room temperature for one hour, after which time the reaction is terminated by the addition of 500 μl of ice cold TT/BSA and centrifugation (900×g) at 4° C. for 10 minutes. The resultant supernatant is aspirated into scintillation vials and the pellet is washed with […]. of ice cold TT/BSA and centrifuged (900×g) at 4° C. for 10 minutes. The supernatants are then aspirated into the same scintillation vials as before and 10 ml. of Scintiverse II (a liquid scintillation cocktail) is added to and mixed therewith. The pellets are resuspended in 500 μl of Scintiverse II and mixed well. An additional 2 ml. of Scintiverse II is then added to the vials and, after mixing, the vials are counted for 1 minute in a liquid scintillation spectrometer. The amount of specific binding is calculated as the difference in cpm between the total bound [^3 H]-PAF and non-specifically bound [^3 H]-PAF. The percent inhibition of specific binding is determined by dividing the cpm specifically bound in the presence of the test compound by the cpm specifically bound in total, multiplying by 100 and then subtracting from 100. An IC50 (50% inhibitory concentration) value is generated by evaluating the test compound over the full concentration range.

[5] = test system: PAF-induced human platelet aggregation; test: Platelet Aggregation Inhibition Assay test (PAIA test): inhibition of PAF-induced human platelet aggregation in vitro; assay type: cell-based; settings: 0.1 h, platelet rich plasma, AUC over 6 min
Protocol: All of the compounds of formula I are useful as platelet activating factor inhibitors as indicated by their ability to inhibit platelet activating factor (PAF)-induced human platelet aggregation in vitro according to the Platelet Aggregation Inhibition Assay test (PAIA test) as follows:
Human subjects are kept aspirin free for one week and fasted overnight. Platelet rich plasma (PRP) is prepared by centrifugation (200×g.) of freshly drawn blood, anti-coagulated with 0.38% sodium citrate (final concentration). Platelet count is adjusted to 250,000 per μl using platelet poor plasma (PPP) obtained by a second centrifugation (700×g.) of the blood sample. An aliquot (0.38 ml) of the PRP is dispensed into cuvettes and maintained at room temperature (22° C.) until used (but for not more than two hours). The PRP-containing cuvettes are incubated at 37° C. and stirred at 900 rpm within a Payton Aggregometer which is activated to follow the light deflection pattern prior to the addition of the test compound. […] The aggregation response is quantitated by determining the area under the curve (AUC). The AUC calculated for the inducing agent alone is considered to be one hundred percent. […]

T1 sequence (P25105 whole entry): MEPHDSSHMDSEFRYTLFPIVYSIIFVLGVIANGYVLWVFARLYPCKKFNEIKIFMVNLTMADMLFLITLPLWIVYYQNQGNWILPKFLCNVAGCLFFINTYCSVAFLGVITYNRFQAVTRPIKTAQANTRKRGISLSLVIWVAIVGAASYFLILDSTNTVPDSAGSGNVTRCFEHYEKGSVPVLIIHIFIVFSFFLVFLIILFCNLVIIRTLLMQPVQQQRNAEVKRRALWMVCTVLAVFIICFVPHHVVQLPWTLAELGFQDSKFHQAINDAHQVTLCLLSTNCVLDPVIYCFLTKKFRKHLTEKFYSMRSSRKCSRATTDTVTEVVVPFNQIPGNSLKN

For “1-0-alkyl-2-acetyl-sn-glyceryl-3-phosphoryl-choline [PAF]”, which “decrease in blood pressure” value ([1]; PAF 100 ng/kg i.v.) is on record?
The value was 30%.

And the “decrease in blood pressure” value ([1]; PAF 500 ng/kg i.v.)?
Its value is 52%.

Which ED50 ([2]; po) does the source give for COc1cc([C@H]2CC[C@H](c3cc(OC)c(OC)c(OC)c3)C2O)cc(OC)c1OC (relative stereo) [Example 3, 1α, 2α, 5β isomer, 2,5-bis(3,4,5-Trimethoxyphenyl)cyclopentanol] here?
Its ED50 is > 20 mg/kg.

And the ED50 ([3]; po)?
The ED50 was > 20 mg/kg.

And the pIC50 [4]?
Its pIC50 is 5.33.

How did the ED50 ([2]; iv, i.a.) turn out when COc1cc([C@H]2CC[C@H](c3cc(OC)c(OC)c(OC)c3)C2OC)cc(OC)c1OC (relative stereo) [Example 4, (1α,2α,5β)-2,5-bis(Trimethoxyphenyl)-1-methoxy cyclopentane] was run?
The ED50 was 0.5 mg/kg.

And the pIC50 [5]?
The pIC50 was 6.06.

What about the ED50 ([1]; Rattus norvegicus, iv, PAF-induced blood pressure decrease) of the same compound?
The ED50 was 0.12 mg/kg.

What about the ED50 ([3]; i.a.) of the same compound?
Its ED50 is 0.4 mg/kg.

What about the pIC50 ([4]; unit printed um) of the same compound?
The pIC50 was 7.00.

COc1cc([C@H]2CC[C@H](c3cc(OC)c(OC)c(OC)c3)C2N)cc(OC)c1OC (relative stereo) [Example 10, 1α, 2α, 5β isomer, 1-Amino-2,5-bis(3,4,5-trimethoxyphenyl)cyclopentane] was tested. Which pIC50 [4] did it give?
The pIC50 was 5.57.

How did the ED50 ([2]; iv, i.a.) turn out when COc1cc(C2=CCC(c3cc(OC)c(OC)c(OC)c3)C2=O)cc(OC)c1OC (stereo not shown) [Example 1, 2,5-bis(3,4,5-Trimethoxyphenyl)cyclopent-2-enone] was run?
Its ED50 is 1 mg/kg.

And the ED50 ([3]; i.a.)?
The ED50 was 1 mg/kg.

What about the pIC50 [4] of the same compound?
The pIC50 was 5.22.

How did the ED50 ([2]; po) turn out when COc1cc(C2CCC(c3cc(OC)c(OC)c(OC)c3)C2=O)cc(OC)c1OC (stereo not shown) [Example 2, 2,5-bis(3,4,5-Trimethoxyphenyl)cyclopentanone] was run?
The ED50 was > 20 mg/kg.

What about the ED50 ([3]; po) of the same compound?
The ED50 was > 20 mg/kg.

What about the pIC50 [4] of the same compound?
The pIC50 was 6.05.

With COc1cc([C@H]2CC[C@@H](c3cc(OC)c(OC)c(OC)c3)[C@H]2O)cc(OC)c1OC [Example 3, 1α, 2α, 5α isomer, 2,5-bis(3,4,5-Trimethoxyphenyl)cyclopentanol] as the compound, how does the ED50 ([2]; po) read?
The ED50 was ~20 mg/kg.

What about the ED50 ([3]; po) of the same compound?
The ED50 was > 20 mg/kg.

What about the pIC50 [4] of the same compound?
The pIC50 was 5.55.

How did the pIC50 [5] turn out when COc1cc([C@H]2CC[C@@H](c3cc(OC)c(OC)c(OC)c3)[C@H]2OC)cc(OC)c1OC [Example 5, (1α,2α,5α)-2,5-bis(Trimethoxyphenyl)-1-methoxy cyclopentane] was run?
Its pIC50 is 4.66.

How did the ED50 ([2]; po) turn out when COc1cc(C2CCC(c3cc(OC)c(OC)c(OC)c3)C2=NO)cc(OC)c1OC (stereo not shown) [Example 9, 2,5-bis(3,4,5-Trimethoxyphenyl)cyclopentanone, oxime] was run?
Its ED50 is 0.87 mg/kg.

And the ED50 ([3]; po)?
Its ED50 is 0.75 mg/kg.

What about the pIC50 [4] of the same compound?
Its pIC50 is 6.35.

COc1cc([C@H]2CC[C@@H](c3cc(OC)c(OC)c(OC)c3)[C@H]2N)cc(OC)c1OC [Example 10, 1α, 2α, 5α isomer, 1-Amino-2,5-bis(3,4,5-trimethoxyphenyl)cyclopentane] was tested. Which pIC50 [4] did it give?
The pIC50 was 4.66.

From US4845129A, “Diaryl substituted cyclopentane and cyclopentene derivatives” (Sandoz Pharm. Corp., priority 1988, dated 1989)
